Earlier results, collected in Sander's compilation of Henry's law constants.
“And” between values parts separate entries of the source, which are not always exact repeats. Equal entries are not always repeated. Blank lines part the entries; values can stand above or below the molecule they belong to.

Columns and labels:
[1] = Henry solubility constant Hcp at 310 K (mol/(m3 Pa)); conditions: cited value
[2] = Henry solubility constant Hcp at 298.15 K (mol/(m3 Pa)); conditions: cited value
[3] = Henry solubility constant Hcp at 295 K (mol/(m3 Pa)); conditions: cited value
[4] = Henry solubility constant Hcp at 277 K (mol/(m3 Pa)); conditions: reference: Roth (1942); cited value
[5] = Henry solubility constant Hcp at 311 K (mol/(m3 Pa)); conditions: reference: Orcutt and Seevers (1937b); cited value
[6] = Henry solubility constant Hcp at 293 K (mol/(m3 Pa)); conditions: cited value
[7] = reference: Burkholder et al. (2015)
[8] = reference: Burkholder et al. (2019)
[9] = reference: Pandis and Seinfeld (1989)
[10] = reference: Sander et al. (2006)
[11] = reference: Sander et al. (2011)
[12] = reference: Fogg and Sangster (2003)
[13] = reference: Nicholson et al. (1984)

Compound: CC(=O)OO[N+](=O)[O-] [peroxyacetyl nitrate]
- Henry solubility constant Hcp at 295 K ([3]; reference: Schwartz (1986)): 0.036
- Henry solubility constant Hcp [2, 7]: 0.028
- Henry solubility constant Hcp [2, 8]: 0.028
- Henry solubility constant Hcp ([2]; reference: Gaffney and Senum (1984)): 0.036
- Henry solubility constant Hcp ([2]; reference: Leu and Zhang (1999)): 0.029
- Henry solubility constant Hcp [2, 9]: 0.029
- Henry solubility constant Hcp [2, 10]: 0.028
- Henry solubility constant Hcp [2, 11]: 0.028

Compound: ClOCl [dichlorine monoxide]
- Henry solubility constant Hcp at 277 K [4]: 0.07
- Henry solubility constant Hcp [2]: 0.034 and 0.076

Compound: [N-]=[N+]=O [dinitrogen monoxide]
- Henry solubility constant Hcp at 310 K ([1]; reference: Harris (1951)): 0.00017
- Henry solubility constant Hcp [2, 7]: 0.00024
- Henry solubility constant Hcp [2, 8]: 0.00024
- Henry solubility constant Hcp ([2]; reference: Gordon (1895)): 0.00026
- Henry solubility constant Hcp [2, 10]: 0.00024
- Henry solubility constant Hcp [2, 11]: 0.00024
- Henry solubility constant Hcp ([2]; reference: Young (1981b)): 0.00024
- Henry solubility constant Hcp at 311 K [5]: 0.00017
- Henry solubility constant Hcp at 293 K ([6]; reference: Macintosh et al. (1958)): 0.0003
- Henry solubility constant Hcp at 293 K ([6]; reference: Nunn (1958)): 0.00028

Compound: ClC(Cl)Br [bromodichloromethane]
- Henry solubility constant Hcp [2, 7]: 0.004
- Henry solubility constant Hcp [2, 8]: 0.004
- Henry solubility constant Hcp [2, 12]: 0.0048
- Henry solubility constant Hcp ([2]; reference: Goldstein (1982)): 0.0046
- Henry solubility constant Hcp [2, 13]: 0.0043
- Henry solubility constant Hcp [2, 10]: 0.004
- Henry solubility constant Hcp [2, 11]: 0.004
- Henry solubility constant Hcp at 293 K [6, 13]: 0.0047

Compound: ClC(Br)Br [dibromochloromethane]
- Henry solubility constant Hcp [2, 7]: 0.0086
- Henry solubility constant Hcp [2, 8]: 0.0086
- Henry solubility constant Hcp [2, 12]: 0.0087
- Henry solubility constant Hcp ([2]; reference: Goldstein (1982)): 0.012
- Henry solubility constant Hcp [2, 13]: 0.012
- Henry solubility constant Hcp [2, 10]: 0.0086
- Henry solubility constant Hcp [2, 11]: 0.0086
- Henry solubility constant Hcp at 293 K [6, 13]: 0.011

Compound: O=C=O [carbon dioxide]
- Henry solubility constant Hcp [2, 7]: 0.00034
- Henry solubility constant Hcp [2, 8]: 0.00034
- Henry solubility constant Hcp ([2]; reference: Carroll et al. (1991)): 0.00034
- Henry solubility constant Hcp ([2]; reference: Chen et al. (1979)): 0.00034
- Henry solubility constant Hcp ([2]; reference: Crovetto (1991)): 0.00034
- Henry solubility constant Hcp ([2]; reference: Edwards et al. (1978)): 0.00034
- Henry solubility constant Hcp ([2]; reference: Lelieveld and Crutzen (1991)): 0.00034
- Henry solubility constant Hcp [2, 9]: 0.00034
- Henry solubility constant Hcp ([2]; reference: Perry and Chilton (1973)): 0.00034
- Henry solubility constant Hcp [2, 10]: 0.00033
- Henry solubility constant Hcp [2, 11]: 0.00033
- Henry solubility constant Hcp ([2]; reference: Weiss (1974)): 0.00034
- Henry solubility constant Hcp ([2]; reference: Yoo et al. (1986)): 0.00034
- Henry solubility constant Hcp at 293 K ([6]; reference: Nunn (1958)): 0.00039

Compound: CCOC(C)=O [ethyl ethanoate]
- Henry solubility constant Hcp at 310 K ([1]; reference: Nahon et al. (2000)): 0.039
- Henry solubility constant Hcp ([2]; reference: Brockbank (2013)): 0.065
- Henry solubility constant Hcp [2, 7]: 0.059
- Henry solubility constant Hcp [2, 8]: 0.065
- Henry solubility constant Hcp [2, 11]: 0.059

Continued, values first:

- Henry solubility constant Hcp at 310 K ([1]; reference: Nahon et al. (2000)): 0.027
- Henry solubility constant Hcp ([2]; reference: Brockbank (2013)): 0.025
Compound: CCCC(=O)OCC [ethyl butanoate]

- Henry solubility constant Hcp at 310 K ([1]; reference: Nahon et al. (2000)): 0.019
- Henry solubility constant Hcp ([2]; reference: Brockbank (2013)): 0.02
Compound: CCCCCCCC=O [octanal]

- Henry solubility constant Hcp at 295 K ([3]; reference: Lee and Zhou (1993)): 990
Compound: O=CCO [2-hydroxyethanal]

- Henry solubility constant Hcp at 295 K ([3]; reference: Lee and Zhou (1993)): 77
Compound: CC(=O)CO [1-hydroxypropanone]

- Henry solubility constant Hcp at 310 K ([1]; reference: Nahon et al. (2000)): 0.036
- Henry solubility constant Hcp ([2]; reference: Brockbank (2013)): 0.039
Compound: CCCC(=O)OC [methyl butanoate]
